Laboratory results: ChEMBL document CHEMBL1137110, “Synthesis and biological activity of 22-oxa CD-ring modified analogues of 1alpha,25-dihydroxyvitamin D3: spiro[5.5]undecane CF-ring analogues” (2004)

Experiments:
[1] = target: T1, Vitamin D3 receptor (Homo sapiens) (UniProt P11473); test: Antiproliferative activity in human breast cancer MCF-7 cells relative to 1-alpha,25(OH)2D3; assay type: functional, cell-based; conditions: MCF7
T1 sequence (whole entry): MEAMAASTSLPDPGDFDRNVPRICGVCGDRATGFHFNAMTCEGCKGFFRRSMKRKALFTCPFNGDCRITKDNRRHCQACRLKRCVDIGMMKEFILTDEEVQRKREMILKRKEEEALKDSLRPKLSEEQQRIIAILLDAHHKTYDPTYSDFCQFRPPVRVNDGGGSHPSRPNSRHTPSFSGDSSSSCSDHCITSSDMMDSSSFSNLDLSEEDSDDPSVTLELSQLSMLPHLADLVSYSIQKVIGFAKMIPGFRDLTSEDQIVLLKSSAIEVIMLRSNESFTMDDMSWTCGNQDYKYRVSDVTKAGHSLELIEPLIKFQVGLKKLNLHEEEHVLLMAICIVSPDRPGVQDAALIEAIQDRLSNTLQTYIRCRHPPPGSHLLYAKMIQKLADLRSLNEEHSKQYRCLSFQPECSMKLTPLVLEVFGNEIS

[2] = target: T2, Vitamin D3 receptor (Sus scrofa) (UniProt A3RGC1); test: Binding affinity for pig nuclear vitamin D receptor relative to 1-alpha,25(OH)2D3
T2 sequence (whole entry): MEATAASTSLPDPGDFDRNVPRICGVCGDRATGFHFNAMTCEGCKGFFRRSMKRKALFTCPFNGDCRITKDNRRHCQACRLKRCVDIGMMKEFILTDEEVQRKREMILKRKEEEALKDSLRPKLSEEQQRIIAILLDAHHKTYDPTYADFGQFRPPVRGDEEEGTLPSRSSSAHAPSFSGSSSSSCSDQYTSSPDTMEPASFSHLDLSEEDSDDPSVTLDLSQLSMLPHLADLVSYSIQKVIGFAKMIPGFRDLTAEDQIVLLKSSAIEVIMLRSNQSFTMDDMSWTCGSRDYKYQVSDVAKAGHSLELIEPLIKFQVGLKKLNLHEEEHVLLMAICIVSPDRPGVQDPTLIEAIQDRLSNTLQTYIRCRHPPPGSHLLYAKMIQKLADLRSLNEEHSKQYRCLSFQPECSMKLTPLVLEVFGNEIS

[3] = target: T3, Vitamin D3 receptor (Mus musculus) (UniProt P48281); test: Effect on Ca level in mouse serum relative to 1-alpha,25(OH)2D3 treatment; assay type: functional, in vivo
T3 sequence (whole entry): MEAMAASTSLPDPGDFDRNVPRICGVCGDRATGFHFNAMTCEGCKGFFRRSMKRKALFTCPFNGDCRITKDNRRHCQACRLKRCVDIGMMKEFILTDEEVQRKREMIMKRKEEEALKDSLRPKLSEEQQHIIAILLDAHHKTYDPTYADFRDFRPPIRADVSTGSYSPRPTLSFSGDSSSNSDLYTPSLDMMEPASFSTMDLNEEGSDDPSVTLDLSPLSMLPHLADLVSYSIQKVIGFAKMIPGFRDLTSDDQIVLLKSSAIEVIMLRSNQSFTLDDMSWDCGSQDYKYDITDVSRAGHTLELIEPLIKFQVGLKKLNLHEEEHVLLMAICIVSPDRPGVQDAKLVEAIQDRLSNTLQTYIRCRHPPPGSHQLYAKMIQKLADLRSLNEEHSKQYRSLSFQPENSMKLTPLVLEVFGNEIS

[4] = target: T1, Vitamin D3 receptor (Homo sapiens); test: Differentiation activity in human leukemia HL-60 cells relative to 1-alpha,25(OH)2D3; assay type: functional, cell-based
Mus musculus = organism: Mus musculus; test: Effect of compound on Ca level in mice blood serum was determined; assay type: functional
[5] = target: T2, Vitamin D3 receptor (Sus scrofa); test: Binding affinity for pig nuclear vitamin D receptor
MCF7 = test: Antiproliferative activity on human breast cancer MCF-7 cells was determined; assay type: functional
HL-60 = test: Prodifferentiating activity of compound on human leukemia HL-60 cells was determined; assay type: functional

Compound	Activity [1]	Activity [2]	Activity [3]	Activity [4]	Activity [5]	Activity (Mus musculus)	Activity (MCF7)	Activity (HL-60)
C=C1/C(=C\C=C2/CCC[C@]3(CC[C@@H](OCCC(C)(C)O)CC3)C2)C[C@@H](O)C[C@@H]1O	10	0.5	< 0.25	–	–	–	–	–
C=C1/C(=C/C=C2/CCC[C@]3(CC[C@H](OCCC(C)(C)O)CC3)C2)C[C@@H](O)C[C@@H]1O	0	< 0.1	< 0.25	< 1	–	–	–	–
C=C1/C(=C\C=C2/CCC[C@]3(C)[C@@H]([C@H](C)CCCC(C)(C)O)CC[C@@H]23)C[C@@H](O)C[C@@H]1O [CALCITRIOL]	–	–	–	–	100	100	100	100

Second part, led by results:

Activity [1]	Activity [2]	Activity [3]	Activity [4]	Activity [5]	Compound	Activity (Mus musculus)	Activity (MCF7)	Activity (HL-60)
7	< 0.1	< 0.25	6	–	CC(C)(O)CCO[C@H]1CC[C@]2(CCC/C(=C\C=C3C[C@@H](O)C[C@H](O)C3)C2)CC1	–	–	–
60	< 0.1	< 0.25	8	–	CC(C)(O)CCO[C@H]1CC[C@@]2(CCC/C(=C\C=C3C[C@@H](O)C[C@H](O)C3)C2)CC1	–	–	–
